In brackets after ≈: the same amount, converted by molar mass. Activity calls are given as the source filed them. The rule behind the calls is not given here.
Key:
Staphylococcus aureus [1] = assay: Antibacterial activity against Staphylococcus aureus ATCC25923 assessed as inhibition of bacterial growth incubated for 18 hrs by microdilution broth assay; format: functional
Enterococcus faecalis [2] = assay: Antibacterial activity against Enterococcus faecalis ATCC29212 assessed as inhibition of bacterial growth incubated for 18 hrs by microdilution broth assay; format: functional
Bacillus subtilis = assay: Antibacterial activity against Bacillus subtilis ATCC6633 assessed as inhibition of bacterial growth incubated for 18 hrs by microdilution broth assay; format: functional
[3] = test system: Mycobacterium tuberculosis; assay: Antibacterial activity against Mycobacterium tuberculosis H37Rv assessed as inhibition of bacterial growth incubated for 7 days by alamar blue assay; format: functional; settings: 168 h, time 7 day
[4] = Cytotoxicity against African green monkey Vero cells incubated for 48 hrs by MTT assay; format: toxicity, cell-based, Chlorocebus sabaeus
[5] = test system: Staphylococcus epidermidis; assay: Antibacterial activity against Staphylococcus epidermidis ATCC12228 assessed as inhibition of bacterial growth incubated for 18 hrs by microdilution broth assay; format: functional
Staphylococcus aureus [6] = assay: Antibacterial activity against methicillin resistant Staphylococcus aureus clinical isolate 20-1 assessed as inhibition of bacterial growth incubated for 7 days by alamar blue assay; format: functional; settings: clinical isolate 20-1, 168 h, time 7 day
Staphylococcus aureus [7] = assay: Antibacterial activity against vancomycin intermediate Staphylococcus aureus ATCC700699 assessed as inhibition of bacterial growth incubated for 7 days by alamar blue assay; format: functional; settings: ATCC700699, 168 h, time 7 day
Staphylococcus aureus [8] = assay: Antibacterial activity against Linezolid resistant Staphylococcus aureus clinical isolate 20-2 assessed as inhibition of bacterial growth incubated for 7 days by alamar blue assay; format: functional; settings: clinical isolate 20-2, 168 h, time 7 day
Enterococcus faecalis [9] = assay: Antibacterial activity against Linezolid resistant Enterococcus faecalis clinical isolate 20-2 assessed as inhibition of bacterial growth incubated for 7 days by alamar blue assay; format: functional; settings: clinical isolate 20-2, 168 h, time 7 day
[10] = test system: Staphylococcus epidermidis; assay: Antibacterial activity against methicillin resistant Staphylococcus epidermidis clinical isolate 20-2 assessed as inhibition of bacterial growth incubated for 7 days by alamar blue assay; format: functional; settings: clinical isolate 20-2, 168 h, time 7 day
Enterococcus = assay: Antibacterial activity against vancomycin resistant Enterococcus clinical isolate 20-1 assessed as inhibition of bacterial growth incubated for 7 days by alamar blue assay; format: functional; settings: clinical isolate 20-1, 168 h, time 7 day
[11] = test system: Staphylococcus epidermidis; assay: Antibacterial activity against methicillin resistant Staphylococcus epidermidis clinical isolate 20-1 assessed as inhibition of bacterial growth incubated for 7 days by alamar blue assay; format: functional; settings: clinical isolate 20-1, 168 h, time 7 day
Enterococcus faecalis [12] = assay: Antibacterial activity against Linezolid resistant Enterococcus faecalis clinical isolate 20-1 assessed as inhibition of bacterial growth incubated for 7 days by alamar blue assay; format: functional; settings: clinical isolate 20-1, 168 h, time 7 day
Staphylococcus aureus [13] = assay: Antibacterial activity against methicillin resistant Staphylococcus aureus clinical isolate 20-2 assessed as inhibition of bacterial growth incubated for 7 days by alamar blue assay; format: functional; settings: clinical isolate 20-2, 168 h, time 7 day
Staphylococcus aureus [14] = assay: Antibacterial activity against Linezolid resistant Staphylococcus aureus clinical isolate 20-1 assessed as inhibition of bacterial growth incubated for 7 days by alamar blue assay; format: functional; settings: clinical isolate 20-1, 168 h, time 7 day
[15] = Metabolic stability in human liver microsomes assessed as substrate remaining at 10 uM incubated for 60 mins in presence of NADPH by LC-MS/MS analysis; format: ADME, Microsome; settings: read-out: Stability
[16] = Metabolic stability in human liver microsomes assessed as compound remaining at 10 uM incubated for 60 mins in absence of NADPH by LC-MS/MS analysis; format: ADME, Microsome; settings: read-out: Stability
[17] = Metabolic stability in ICR mouse liver microsomes assessed as substrate remaining at 10 uM incubated for 60 mins in presence of NADPH by LC-MS/MS analysis; format: ADME, Microsome; settings: read-out: Stability
[18] = Metabolic stability in ICR mouse liver microsomes assessed as compound remaining at 10 uM incubated for 60 mins in absence of NADPH by LC-MS/MS analysis; format: ADME, Microsome; settings: read-out: Stability
Cell membrane = assay: Disruption of cell membrane in methicillin resistant Staphylococcus aureus ATCC 33592 assessed as cell lysis at MIC incubated for 6 hrs by Scanning electron microscopic analysis; format: cell membranes
[19] = Oral bioavailability in BALB/c mouse at 10 mg/kg administration measured upto 24 hrs by LC-MS/MS analysis; format: ADME, organism-based; settings: BALB/c, in vivo

SMILES	MIC (Staphylococcus aureus [1])	MIC (Enterococcus faecalis [2])	MIC (Bacillus subtilis)	MIC [3]	IC50 at 48 h [4]	MIC [5]	further results
CC(=O)NC[C@H]1OC(=O)N2Cc3cc(-c4ccc(-c5nnn(C)n5)nc4)c(F)cc3O[C@@H]12	0.125 µg/mL (≈ 0.284 µM)	0.5 µg/mL (≈ 1.14 µM)	0.125 µg/mL (≈ 0.284 µM)	0.54 µg/mL (≈ 1.23 µM)			
Cn1nnc(-c2ccc(-c3c(F)cc4c(c3F)CN3C(=O)O[C@@H](CN)[C@@H]3O4)cn2)n1	> 64 µg/mL	> 64 µg/mL	64 µg/mL (≈ 154 µM)	0.74 µg/mL (≈ 1.78 µM)	16 µg/mL (≈ 38.5 µM)	64 µg/mL (≈ 154 µM)	
CC(=O)NC[C@H]1OC(=O)N2Cc3c(cc(F)c(-c4ccc(C#N)nc4)c3F)O[C@H]12	> 64 µg/mL	> 64 µg/mL	> 64 µg/mL	> 32 µg/mL		> 64 µg/mL	
CC(=O)NC[C@@H]1OC(=O)N2Cc3cc(-c4ccc(C(C)=O)cc4)c(F)cc3O[C@@H]12	8 µg/mL (≈ 20.1 µM)	1 µg/mL (≈ 2.51 µM)	0.5 µg/mL (≈ 1.26 µM)	0.74 µg/mL (≈ 1.86 µM)	49 µg/mL (≈ 123 µM)	2 µg/mL (≈ 5.02 µM)	
CC(=O)NC[C@@H]1OC(=O)N2Cc3c(cc(F)c(-c4ccc(-c5nnn(C)n5)nc4)c3F)O[C@@H]12	1 µg/mL (≈ 2.19 µM)	2 µg/mL (≈ 4.37 µM)	0.125 µg/mL (≈ 0.273 µM)	0.74 µg/mL (≈ 1.62 µM)	> 64 µg/mL	2 µg/mL (≈ 4.37 µM)	MIC (Staphylococcus aureus [6]): 1 µg/mL (≈ 2.19 µM); MIC (Staphylococcus aureus [7]): 1 µg/mL (≈ 2.19 µM); MIC (Staphylococcus aureus [8]): 8 µg/mL (≈ 17.5 µM); MIC (Enterococcus faecalis [9]): 2 µg/mL (≈ 4.37 µM); MIC [10]: 0.5 µg/mL (≈ 1.09 µM); MIC (Enterococcus): 1 µg/mL (≈ 2.19 µM); MIC [11]: 0.5 µg/mL (≈ 1.09 µM); MIC (Enterococcus faecalis [12]): 2 µg/mL (≈ 4.37 µM); MIC (Staphylococcus aureus [13]): 1 µg/mL (≈ 2.19 µM); MIC (Staphylococcus aureus [14]): 8 µg/mL (≈ 17.5 µM)
COC(=O)NC[C@@H]1OC(=O)N2Cc3cc(-c4ccc(-c5nnn(C)n5)nc4)c(F)cc3O[C@@H]12	4 µg/mL (≈ 8.78 µM)	0.5 µg/mL (≈ 1.1 µM)	0.125 µg/mL (≈ 0.274 µM)	0.49 µg/mL (≈ 1.08 µM)	37 µg/mL (≈ 81.2 µM)	0.125 µg/mL (≈ 0.274 µM)	MIC (Staphylococcus aureus [6]): 0.25 µg/mL (≈ 0.549 µM); remaining at 1 h, 10 µM [15]: 110%; MIC (Staphylococcus aureus [7]): 0.5 µg/mL (≈ 1.1 µM); MIC (Staphylococcus aureus [8]): 8 µg/mL (≈ 17.6 µM); MIC (Enterococcus faecalis [9]): 1 µg/mL (≈ 2.2 µM); MIC [10]: 0.125 µg/mL (≈ 0.274 µM); MIC (Enterococcus): 0.5 µg/mL (≈ 1.1 µM); MIC [11]: 0.125 µg/mL (≈ 0.274 µM); remaining at 1 h, 10 µM [16]: 120%; MIC (Enterococcus faecalis [12]): 1 µg/mL (≈ 2.2 µM); remaining at 1 h, 10 µM [17]: 102%; MIC (Staphylococcus aureus [13]): 0.25 µg/mL (≈ 0.549 µM); MIC (Staphylococcus aureus [14]): 8 µg/mL (≈ 17.6 µM); remaining at 1 h, 10 µM [18]: 104%
CC(=O)NC[C@@H]1OC(=O)N2Cc3c(cc(F)c(-c4ccc(C(C)=O)cc4)c3F)O[C@@H]12	4 µg/mL (≈ 9.61 µM)	0.25 µg/mL (≈ 0.6 µM)	0.125 µg/mL (≈ 0.3 µM)	0.93 µg/mL (≈ 2.23 µM)	> 64 µg/mL	0.25 µg/mL (≈ 0.6 µM)	
CCCCCCCCCC(=O)N[C@@H](Cc1c[nH]c2ccccc12)C(=O)N[C@H](CC(N)=O)C(=O)N[C@@H](CC(=O)O)C(=O)N[C@@H]1C(=O)NCC(=O)N[C@@H](CCCN)C(=O)N[C@@H](CC(=O)O)C(=O)N[C@H](C)C(=O)N[C@@H](CC(=O)O)C(=O)NCC(=O)N[C@H](CO)C(=O)N[C@@H]([C@H](C)CC(=O)O)C(=O)N[C@@H](CC(=O)c2ccccc2N)C(=O)O[C@@H]1C							Activity (Cell membrane): Active
CC(=O)NC[C@@H]1OC(=O)N2Cc3c(cc(F)c(-c4ccc(C#N)cc4)c3F)O[C@@H]12	2 µg/mL (≈ 5.01 µM)	0.25 µg/mL (≈ 0.626 µM)	0.032 µg/mL (≈ 0.0801 µM)	3.41 µg/mL (≈ 8.54 µM)		1 µg/mL (≈ 2.5 µM)	
CC(=O)Nc1ccc(O)cc1 [ACETAMINOPHEN]							bioavailability [19]: 27.6%
N#Cc1ccc(-c2c(F)cc3c(c2F)CN2C(=O)O[C@@H](CN)[C@@H]2O3)cc1	64 µg/mL (≈ 179 µM)	> 64 µg/mL	32 µg/mL (≈ 89.6 µM)	0.99 µg/mL (≈ 2.77 µM)	8 µg/mL (≈ 22.4 µM)	32 µg/mL (≈ 89.6 µM)	
CC(=O)NC[C@@H]1OC(=O)N2Cc3c(cc(F)c(-c4ccc(C#N)nc4)c3F)O[C@@H]12	1 µg/mL (≈ 2.5 µM)	0.5 µg/mL (≈ 1.25 µM)	0.032 µg/mL (≈ 0.0799 µM)	0.97 µg/mL (≈ 2.42 µM)	> 64 µg/mL	0.125 µg/mL (≈ 0.312 µM)	MIC (Staphylococcus aureus [6]): 1 µg/mL (≈ 2.5 µM); MIC (Staphylococcus aureus [7]): 1 µg/mL (≈ 2.5 µM); MIC (Staphylococcus aureus [8]): 8 µg/mL (≈ 20 µM); MIC (Enterococcus faecalis [9]): 2 µg/mL (≈ 5 µM); MIC [10]: 0.5 µg/mL (≈ 1.25 µM); MIC (Enterococcus): 1 µg/mL (≈ 2.5 µM); MIC [11]: 0.5 µg/mL (≈ 1.25 µM); MIC (Enterococcus faecalis [12]): 2 µg/mL (≈ 5 µM); MIC (Staphylococcus aureus [13]): 1 µg/mL (≈ 2.5 µM); MIC (Staphylococcus aureus [14]): 8 µg/mL (≈ 20 µM)
N#Cc1ccc(-c2c(F)cc3c(c2F)CN2C(=O)O[C@@H](CN)[C@@H]2O3)cn1	> 64 µg/mL	> 64 µg/mL	> 64 µg/mL	0.5 µg/mL (≈ 1.4 µM)	59 µg/mL (≈ 165 µM)	64 µg/mL (≈ 179 µM)	
